# Source: patent publication US20250128203A1, “MODIFIED REDOX-ACTIVE SORBENTS FOR ELECTROCHEMICAL CARBON DIOXIDE SEPARATION” (The Johns Hopkins University, priority 2023, published 2025)
# Where “and” joins values, the source holds several entries; their conditions need not be identical. Equal entries are not always repeated.
# Key:
# [1] = Cyclic voltammetry of isoindigos in DMF (half-wave redox potentials under N2 or CO2); format: physicochemical; conditions: for E1/2 in N2 (first): first half-wave potential vs. Fc^+/Fc; for E1/2 in N2 (first) / E1/2 in N2 (second): 0.1 M NBu4PF6, N2, 298 K; for E1/2 in N2 (second): second half-wave potential vs. Fc^+/Fc; for E1/2 in CO2 (first or single) / Experimental 1st half-wave potential in N2: vs. Fc^+/Fc; for E1/2 in CO2 (first or single): 0.1 M NBu4PF6, CO2, 298 K; for E1/2 (IId/IId·−) in N2: Table 1, first electron transfer, N2, DMF; for Experimental 1st half-wave potential in N2: Table 5
# Method: (§1) Electrochemical measurements were conducted using a BioLogic VSP potentiostat (BioLogic Science Instruments). For the cyclic voltammetry measurements, glassy carbon (Ø=3 mm) was used as the working electrode, platinum wire was used as the counter electrode, silver wire was used as the pseudo-reference electrode and ferrocene was used as the internal reference. In a standard cyclic voltammetry measurement, the molecule of interest (2.5 mM) was dissolved in anhydrous DMF with 100 mM NBu4PF6 as the supporting salt. Typical cyclic voltammograms were collected at a scan rate of […]. To study the effects of ionic species on the redox behaviour of the sorbent molecules, 100 mM LiClO4, NaClO4, KClO4, NBu4ClO4, sodium triflate (NaOTf), or sodium bis(trifluoromethanesulfonyl)imide (NaTFSI) was used as the supporting electrolyte salt.
# [2] = CO2 binding constant (KCO2) calculated from the shift of the second reduction peak in CV; conditions: for K[CO2] / logK[CO2]: DMF; for ΔEpeak(2): difference between the second reduction peak potentials (IId·−/IId2−) in CO2 and N2
# Method: as §1
# The CO2 binding constant (KCO2) was calculated by Eq 1: […]
# [3] = Chronoamperometry: reaction rate constant between isoindigo radical anion and CO2; conditions: isoindigo 5 mM in DMF, 0.1 M NBu4PF6; for kbimolecular: first CO2 binding; for kf (20% CO2): forward rate constant
# Source text: In electrochemistry, the Cottrell equation describes the current response (i) when the potential is a step function in time (t):
# where i is current, n is the number of electrons transferred per molecule, A is the area of the electrode, C*0 is the bulk concentration of the redox-active isoindigo molecule, D is the diffusion coefficient, and t is time. The expected current for a diffusion limited electrochemical process following an ECE (electron transfer, chemical reaction, electron transfer) mechanism at a plane electrode under diffusion-controlled conditions is:
# where n1 and n2 are the number of electrons transferred in the first and second step, respectively, and kf is the forward reaction rate constant of the chemical reaction. Here, to calculate kf after the first electron transfer, n2 and n1 are set to 1. Eq 3 then becomes:
# The integrated Cottrell equation relates total charge Q with time for chronoamperometry: […]
# Then, the constant k can be calculated, here k is assumed constant:
# To calculate kf, the constant k is calculated using Eq 5 using potentiostatic measurements. Plugging in Eq 6, and rearranging Eq 4 gives:
# The data for determining kf is shown in FIGS. 22 to 25 using 5 mM sorbent molecules in 0.1 M NBu4PF6 DMF electrolyte. The value k was determined using data under N2; kf was obtained under 1 bar 20% CO2 (0.0396 M CO2 in solution).
# [4] = UV-vis absorption, optical band gap; format: physicochemical; conditions: UV-vis absorption (Kubelka-Munk spectra)
# Method: UV-vis absorption spectra were recorded on a Thermo Scientific Genesys 10S UV-vis spectrophotometer.
# Solubility in DMF = format: physicochemical; conditions: for solubility: organic solvent or mixture
# mammalian cells = assay: Cytotoxicity test and cell morphology, different mammalian cells; format: cell-based; set-up: dose or concentration left out as unconfirmed
# Method: (§2) NIH3T3/GFP fibroblast cell line was kindly provided by Dr. Yun Chen at Johns Hopkins University and cultured in Dulbecco's Modified Eagle's Medium (DMEM; Gibco) supplemented with 10% fetal bovine serum (FBS; Hyclone) and 1% penicillin/streptomycin (Pen/Strep; Gibco). U2OS.EGFP cells were kindly provided by Dr. J Keith Joung at Massachusetts General Hospital and cultured in DMEM supplemented with 10% FBS, 2 mM GlutaMAX (Gibco), and 1% Pen/Strep. MCF10A epithelial cell line was kindly provided by Dr. Konstantinos Konstantopoulos at Johns Hopkins University and cultured in DMEM/F-12 (1:1) supplemented with 5% New Zealand horse serum (Gibco), 20 ng mL^−1 EGF (PeproTech), […] hydrocortisone (Sigma Aldrich), 100 ng mL^−1 cholera toxin (Sigma Aldrich), […] insulin (Gibco), and 1% Pen/Strep. All cells were cultured in a humidified incubator at 5% CO2 and 37° C.
# (§3) Cell cytotoxicity was examined by alamarBlue HS Cell Viability Reagent (Invitrogen) according to manufacturer's protocol. Rampersad, 2012; Kumar et al., 2018. […] Absorbance was measured at 570 nm by a SpectraMax microplate reader, with 600 nm as a reference wavelength. The cell viability was calculated by relative absorbance to control groups. […] Cell morphology was monitored throughout the assay and images were acquired with an EVOS cell imaging system (Thermo Fisher).
# [5] = Flow-based EMCC prototype, cyclic CO2 capture/release
# Method: In a typical experiment, the sorbent tank (20 mL scintillation vial with septum cap) was continuously bubbled with CO2 feed gas (balanced by N2) with the flow rate controlled by a mass flow controller (Alicat). For testing under simulated flue gas conditions, a gas mixture of 10% CO2+3% O2 balanced by N2 was used. An infrared-based CO2 sensor (SprintIR-W 100%) was connected at the gas exit to monitor the CO2 concentration continuously. The tank headspace was filled with plastic beads (McMaster-Carr) to limit the mixing time in the headspace. The Fc tank was kept air free. A two-channel peristaltic pump (Masterflex) circulated the sorbent and the Fc electrolyte to a commercial flow cell (Scribner) at a flow rate of 10 mL min^−1. The flow cell utilised graphite plates with 5 cm^2 interdigitated flow fields pressed against two pieces of carbon paper electrodes (Sigracet 28 AA) at each side of the graphite electrodes to distribute the liquid flow. A Nafion™ 115 membrane was sandwiched by two pieces of polypropylene and placed between the carbon paper electrodes. The cell was kept sealed by Kalrez fluoropolymer elastomer gaskets (0.02 inches thick). CO2 capture was conducted in a constant current mode while the release was carried out following a constant current/constant voltage protocol (that is, oxidizing the adduct at a constant current until a specific cut-off voltage followed by a constant voltage hold (the cut-off current for the constant voltage hold was 5% of the value used in the constant current oxidation). The cycling protocols of each experiment are provided in the corresponding figure captions.
# For experiments using 6MCIId sorbent, we added 10 mM 6MCIId and 4 mM ferrocenium tetrafluoroboronate (FcBF4) into the CE tank to mitigate sorbent crossover and facilitate the reduction of the oxidised ferrocenium in the counter electrolyte, respectively. For less soluble 55DBIId and 66DBIId, the sorbent was dispersed in DMAc to form a slurry catholyte.
# [6] = system: NIH3T3/GFP mouse fibroblasts; assay: alamarBlue cytotoxicity assay; format: cell-based; conditions: concentrations up to 100 µg mL^−1, 48 h
# Method: as §2, §3
# [7] = system: U2OS.EGFP human osteosarcoma cells; assay: alamarBlue cytotoxicity assay; format: cell-based; conditions: concentrations up to 100 µg mL^−1, 48 h
# Method: as §2, §3
# [8] = system: MCF10A human breast epithelial cells; assay: alamarBlue cytotoxicity assay; format: cell-based; set-up: unit not given here; conditions: 48 h cell culture
# Method: as §2, §3
Compound,E1/2 in N2 (first) ([1]; 2.5 mM in DMF),E1/2 in N2 (second) ([1]; 2.5 mM in DMF),E1/2 in CO2 (first or single) ([1]; 2.5 mM in DMF),K[CO2] ([2]; 298 K),logK[CO2] ([2]; 298 K),ΔEpeak(2) [2],Optical band gap [4],Solubility in DMF (Solubility in DMF),E1/2 (IId/IId·−) in N2 [1],logK[CO2] ([2]; Table 1),solubility (Solubility in DMF),Experimental 1st half-wave potential in N2 [1],kbimolecular [3],kf (20% CO2) [3],also measured
"COC(=O)CNC(=O)c1ccc2c(c1)NC(=O)/C2=C1/C(=O)Nc2ccccc21 [6AIIdGly, Methyl isoindigo-6-carbonylglycinate]","−1.17, V",−1.62 V,−1.08 V,4.3e+08 M⁻¹,8.63,0.469 V,2.04 eV,606 mM,–,–,–,–,19.85 M⁻¹ s⁻¹,0.786 s⁻¹,–
"COC(=O)C(CO)NC(=O)c1ccc2c(c1)NC(=O)/C2=C1/C(=O)Nc2ccccc21 (stereo not shown) [6AIIdSer, Methyl isoindigo-6-carbonylserinate]","−1.18, V",−1.60 V,−1.08 V,2.57e+08 M⁻¹,8.41,0.46 V,2.04 eV,830 mM,–,–,–,–,–,–,"Biocompatibility compared with unmodified counterpart (mammalian cells; 0.78 to 100, 48 h): much better biocompatibility; Cell condition in optical microscopic images, compared with IId (mammalian cells; 50, 48 h culture): cells remained much healthier"
"COC(=O)C(CO)NC(=O)c1ccc2c(c1)NC(=O)/C2=C1/C(=O)Nc2cc(Br)ccc21 (stereo not shown) [6B6AIIdSer, Methyl 6-bromoisoindigo-6′-carbonylserinate]","−1.11, V",−1.55 V,−1.11 V,5.41e+08 M⁻¹,8.73,0.475 V,2.03 eV,568 mM,–,–,–,–,–,–,Cycling stability ([5]; more than 40 cycles and approximately 200 hours of operation): negligible voltage decay
Methyl isoindigo-6-carbonylserinate [6AIIdSer],–,–,–,–,–,–,–,–,–,–,–,–,–,–,Toxicity [6]: does not display clear toxicity; Toxicity [7]: does not display clear toxicity; LC50 (lethal concentration that causes 50% cell death) [8]: 89.4

# The next lines start with results.
E1/2 in N2 (first) ([1]; 2.5 mM in DMF),E1/2 in N2 (second) ([1]; 2.5 mM in DMF),E1/2 in CO2 (first or single) ([1]; 2.5 mM in DMF),K[CO2] ([2]; 298 K),logK[CO2] ([2]; 298 K),ΔEpeak(2) [2],Optical band gap [4],Solubility in DMF (Solubility in DMF),E1/2 (IId/IId·−) in N2 [1],logK[CO2] ([2]; Table 1),solubility (Solubility in DMF),Experimental 1st half-wave potential in N2 [1],Compound,kbimolecular [3],kf (20% CO2) [3],also measured
"−1.12, V",−1.62 V,−1.09 V,7.78e+08 M⁻¹,8.89,0.484 V,2.03 eV,–,−1.12 V vs. Fc^+/Fc,8.89,515 mM,–,"COC(=O)c1ccc2c(c1)NC(=O)/C2=C1/C(=O)Nc2ccccc21 [6MCIId, Methyl isoindigo-6-carboxylate]",22.45 M⁻¹ s⁻¹,0.889 s⁻¹,–
"−1.09 V and −1.09, V",−1.61 V,−1.09 V,2.16e+09 M⁻¹,9.33,0.510 V,1.99 eV,–,−1.09 V vs. Fc^+/Fc,9.33,6.3 mM,−1.09 V,"O=C1Nc2ccc(Br)cc2/C1=C1\C(=O)Nc2ccc(Br)cc21 [55DBIId, 5,5′-Dibromoisoindigo]",–,–,"CO2 release at approximately −1 V vs. Fc^+/Fc in the presence of water ([1]; 10 vol % water): gets suppressed; Electrochemical behaviours in the presence of O2 ([1]; up to 16% CO2 and 20% O2, 2.5 mM in DMF, 0.1 M NBu4PF6): remained almost unaffected"
–,−1.67 V,−1.12 V,38800 M⁻¹,9.59,0.525 V,2.06 eV,–,−1.14 V vs. Fc^+/Fc,9.59,–,−1.14 V,"O=C1Nc2cc(Br)ccc2/C1=C1\C(=O)Nc2cc(Br)ccc21 [66DBIId, 6,6′-Dibromoisoindigo]",18.64 M⁻¹ s⁻¹,0.738 s⁻¹,"Sorbent recovered from the sorbent electrolyte after cycling ([5]; after 11 capture/release cycles over 50+ hours): 87%; Sorbent isomerized into cis-isomer after cycling ([5]; after 11 capture/release cycles over 50+ hours, 1H NMR): approximately 24%"
"−0.97, V",−1.41 V,−0.91 V,1.17e+08 M⁻¹,8.07,0.435 V,2.02 eV,<2.5 mM,–,–,< 2.5 mM,–,"COC(=O)c1ccc2c(c1)NC(=O)/C2=C1/C(=O)Nc2cc(C(=O)OC)ccc21 [66DMCIId, Dimethyl isoindigo-6,6′-dicarboxylate]",–,–,"Positive shift of E1/2 under CO2 compared to unmodified IId ([1]; under CO2, DMF): 300 mV"
"−1.29 V and −1.29, V",−1.79 V,−1.21 V,2.19e+09 M⁻¹,9.34,0.511 V,2.04 eV,–,−1.29 V vs. Fc^+/Fc,9.34,~230 mM,−1.29 V,"O=C1Nc2ccccc2/C1=C1\C(=O)Nc2ccccc21 [IId, Isoindigo]",–,–,–
